# Patent US20060167083A1, “Therapeutic methods and compositions involving isoflav-3-ene and isoflavan structures” (priority 2002, published 2006)
# Where “and” joins values, the source holds several entries; their conditions need not be identical. Equal entries are not always repeated.
# Key:
# [1] = tested on: breast cancer line MCF7; assay: Anti-proliferative effect on MCF7; type: cell-based; conditions: Homo sapiens
# [2] = tested on: PECAM-1; assay: PECAM-1 expression on EC, flow cytometric analysis; type: cell-based; conditions: after De treatment, data not shown
# [3] = tested on: leukaemic cell line HL60; assay: Anti-proliferative effect on HL60; type: cell-based; conditions: Homo sapiens, HL-60
# [4] = biological target: T1, human topo II (Homo sapiens, UniProt P11388); assay: Topo II-mediated P4 unknotting assay; type: biochemical
# T1 construct: purchased Topogen (Columbus, Ohio)
# Experimental: FIG. 1 represents an unknotting assay for determining the effect of dehydroequol on topo II catalytic activity. Substrate P4 DNA was incubated with two units of purified topo II in the absence (lane 1) or presence of 100, 80, 60, 40, 20, and 10 μg/ml dehydroequol (lanes 3-8). Lane 2, 10 μg/ml VP-16 (positive control). Topo II activity was determined by converting knotted P4 DNA (K) to the unknotted (U) form.
# The stepwise removal of DNA knots (unknotting) requires transient double-strand breakage followed by strand passage and relegation. Type II topoisomerases uniquely catalyse this reaction. […] DNA from a mutant bacteriophage (P4 Virl del1O) is used as a reaction substrate that migrates as a smear (due to the variable number of knots). In the presence of topo II, topological DNA knots are removed, and the reaction product (unknotted DNA) migrates as a single band. Complete inhibition was evident at 100 μg/ml dehydroequol. It was determined from densitometric measurements of the unknotted band that 50% inhibition (IC50) was at about 20 μg/ml dehydroequol.
# To determine topoisomerase (topo) II catalytic activity, knotted DNA that had been isolated from the tailless capsids of the bacteriophage P4 Virl del1O was used as the substrate. Reaction mixtures contained 50 mM Tris-HCl, pH 8.0, 120 mM KCl, 10 mM MgCl2, 0.5 mM ATP, and 0.5 mM dithiothreitol. The topo II inhibitor was added prior to the addition of 2 units of human topo II. Reactions (20 μl final volume) were initiated by adding 0.6 μg of knotted DNA and carried out at 37° C. for 30 min. […] For the quantitative determination of topo II activity, photographic negatives were densitometrically scanned. Unknotted DNA, migrating as a single band at the top of the gel, was measured in this manner. The concentration of the inhibitor preventing 50% of the substrate (knotted DNA) from being converted into the reaction product (unknotted DNA) was determined from a standard curve. By averaging three to four such experiments, the IC50 values were determined.
# [5] = tested on: human cervical carcinoma (HeLa); assay: HeLa cell apoptosis; type: cell-based; conditions: 10 μm
# [6] = tested on: MMP-2; assay: Northern blot analysis of MMP-2 mRNA in endothelial cells; type: cell-based, human; conditions: 10 μg/ml for 18 hours; two experiments; listed as De
# Experimental: Northern blot analysis: HUVEC were plated at 1×10^6 cells per 25 cm^2 flask and grown for 48 hours. Following treatment with DMSO vehicle or De (10 μg/ml final) for 18 hours, total RNA was harvested and purified using TRIZOL reagent (Invitrogen—Life Technologies, Groningen, Netherlands) according to the manufacturer's protocol. Northern blot analysis was performed using 8 μg total RNA transferred onto Hybond-N membranes (Amersham Biosciences, Buckinghamshire, England) and probed with human MMP-2 and GAPDH cDNAs using a Strip-EZ PCR stripAble PCR Probe synthesis and removal Kit (Ambion, Tex., USA).
# [7] = tested on: leukaemic cell line K562; assay: Anti-proliferative effect on K562; type: cell-based; conditions: Homo sapiens
# [8] = tested on: colon cancer line CaCo-2; assay: Anti-proliferative effect on CaCo-2; type: cell-based; conditions: Homo sapiens
# [9] = tested on: Human umbilical vein endothelial cells (HUVEC); assay: Endothelial cell proliferation assay (MTT); type: cell-based
# Experimental: Cells: Human umbilical vein endothelial cells (HUVEC) were prepared and grown as previously described^30. The cells were used between passages 2 and 6 for all experiments. The human prostatic adenocarcinoma cell line, LNCaP was obtained from American Tissue Type Collection and maintained according to the instructions of the supplier.
# Proliferation assay: HUVEC were seeded at 3×10^3 cells per gelatin-coated microtitre well and grown in complete medium for 3 days. Dehydroequol (De) was added 3 hours after plating. Proliferation was measured using the MTT assay (Promega, Wis., USA) and is given as the rate of proliferation over the 3 days±SEM of quadruplicate determinations for each group. Proliferation of LNCaP cells was determined using the MTT assay. Cells were seeded at 2.5×10^3 cells per microtitre well. De was added 4 days after plating and assayed after a further 5 days of growth. Cell viability is expressed as a percentage of control untreated cells.
# [10] = tested on: VCAM-1; assay: VCAM-1 expression assay on endothelial cells (FACS); type: cell-based, human; conditions: 10 μg/ml 18 hours prior to stimulation; TNF and IL-1
# Experimental: E selectin and VCAM-1 assays: HUVEC were plated at 5×10^5 cells per 6 well dish. Cells were treated with DMSO vehicle or De (10 μg/ml final) for 18 hours prior to TNFα (1 ng/ml) addition. After 4 or 18 hours, cells were washed with PBS and incubated with antibodies against E selectin (Mab49-1B11) or VCAM-1 (Nab51-10C9) for 30 min. Goat F(ab′)2 fragment mouse-IgG(H+L)-FITC antibody (Immunotech, Marseille, France) was then added for 30 min. The cells were then trypsinised and FACS analysed on a Coulter Epics® XL-MCL (Beckman Coulter). Results are expressed as arbitrary units relating to the mean intensity of FITC fluorescence.
# [11] = tested on: prostate cancer line DU145; assay: Anti-proliferative effect on DU145; type: cell-based; conditions: Homo sapiens, DU-145
# [12] = tested on: IL-8; assay: IL-8 secretion from endothelial cells (immunoassay); type: cell-based, human; conditions: TNF stimulated endothelial cells
# Experimental: IL8 assay: IL-8 assays were performed using a “Quantikine Human IL-8 Immunoassay” (R & D Systems, Minneapolis Minn. USA).
# [13] = tested on: sphingomyelinase; assay: TNF-stimulated sphingomyelinase activity; type: cell-based; conditions: data not shown
# T1 sequence (P11388 whole entry): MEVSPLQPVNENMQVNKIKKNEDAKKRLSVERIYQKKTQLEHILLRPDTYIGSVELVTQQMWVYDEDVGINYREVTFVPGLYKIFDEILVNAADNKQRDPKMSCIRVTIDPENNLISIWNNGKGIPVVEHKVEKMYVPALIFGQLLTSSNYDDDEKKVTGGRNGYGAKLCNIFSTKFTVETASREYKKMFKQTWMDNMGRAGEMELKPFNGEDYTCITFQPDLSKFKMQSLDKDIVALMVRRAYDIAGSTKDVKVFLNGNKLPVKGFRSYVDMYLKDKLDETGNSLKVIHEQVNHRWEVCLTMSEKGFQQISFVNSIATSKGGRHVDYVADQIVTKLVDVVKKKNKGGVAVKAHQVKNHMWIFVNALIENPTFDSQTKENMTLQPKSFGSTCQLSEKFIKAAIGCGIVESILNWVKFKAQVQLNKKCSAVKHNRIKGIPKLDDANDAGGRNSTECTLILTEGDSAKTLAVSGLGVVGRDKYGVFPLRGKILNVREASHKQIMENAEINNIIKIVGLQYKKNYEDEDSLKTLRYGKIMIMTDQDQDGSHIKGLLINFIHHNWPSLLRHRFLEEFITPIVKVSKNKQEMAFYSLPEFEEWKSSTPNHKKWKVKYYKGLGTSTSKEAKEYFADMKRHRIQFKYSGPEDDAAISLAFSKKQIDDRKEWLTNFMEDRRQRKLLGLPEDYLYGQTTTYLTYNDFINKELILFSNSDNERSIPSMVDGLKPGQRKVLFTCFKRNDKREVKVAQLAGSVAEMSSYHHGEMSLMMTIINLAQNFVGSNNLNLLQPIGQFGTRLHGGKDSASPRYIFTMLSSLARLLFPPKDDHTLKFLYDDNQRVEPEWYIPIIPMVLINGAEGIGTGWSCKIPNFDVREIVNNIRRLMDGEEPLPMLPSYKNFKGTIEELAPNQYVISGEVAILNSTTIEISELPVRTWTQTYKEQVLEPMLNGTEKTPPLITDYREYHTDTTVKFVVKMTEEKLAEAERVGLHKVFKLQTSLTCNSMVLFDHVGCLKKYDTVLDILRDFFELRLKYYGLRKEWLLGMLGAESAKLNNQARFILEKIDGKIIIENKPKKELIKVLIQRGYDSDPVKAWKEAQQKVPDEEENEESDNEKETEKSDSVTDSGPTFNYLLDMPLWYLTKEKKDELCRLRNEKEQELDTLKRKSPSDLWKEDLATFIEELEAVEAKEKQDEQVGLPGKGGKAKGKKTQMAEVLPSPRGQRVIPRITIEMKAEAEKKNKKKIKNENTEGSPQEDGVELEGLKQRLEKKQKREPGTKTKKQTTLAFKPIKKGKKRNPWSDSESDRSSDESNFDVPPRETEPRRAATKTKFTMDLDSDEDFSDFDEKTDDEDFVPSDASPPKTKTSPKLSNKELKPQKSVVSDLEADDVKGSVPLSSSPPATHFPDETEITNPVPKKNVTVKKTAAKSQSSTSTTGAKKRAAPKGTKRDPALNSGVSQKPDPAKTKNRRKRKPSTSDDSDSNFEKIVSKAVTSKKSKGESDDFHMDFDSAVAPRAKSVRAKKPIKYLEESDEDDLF
structure (smiles),measurement,setting,value
"Oc1ccc(C2=Cc3ccc(O)cc3OC2)cc1 [Dehydroequol, 4′,7-dihydroxyisoflav-3-ene]",IC50,[1],1.5 µg/mL
same,level of expression of PECAM-1,[2],no changes
same,IC50,[3],1.5 µg/mL
same,concentration at which complete inhibition of topo II unknotting was evident,[4],100 µg/mL
same,effect on topo II catalytic activity compared with positive control,[4]; VP-16 10 μg/ml as positive control,comparable to that of VP-16
same,IC50,"[4]; densitometric measurements of the unknotted band, read-out: 50% inhibition (IC50) of topo II unknotting (converted)",~83.2 µM
same,apoptosis of HeLa cells,[5],leading to HeLa cell apoptosis
same,decrease in level of mRNA for MMP-2,[6],68.3% and 46.7%
same,IC50,[7],3 µg/mL
same,IC50,[8],1 µg/mL
same,cell death in proliferation assays,[9],did not cause cell death
same,inhibition at 10 µg/mL,"[9]; Homo sapiens, HUVEC, 10 μg/ml, five experiments",91%
same,induction of VCAM-1 on the endothelium,[10],inhibits the induction
same,IC50,[11],3 µg/mL
same,secretion of EL-8,[12],inhibits the secretion
same,effect on TNF-stimulated sphingomyelinase activity,[13],does not affect
